The record followed here is patent publication US20210244712A1, “METHODS FOR TREATING PATIENTS WITH CANCER HAVING DEFECTS IN CYCLIN D REGULATION” (NysnoBio Ireland DAC, priority 2018, published 2021).

SMILES strings stand for the structures.

Data set [1] relates to cyclin D1. The data set is described as follows: Western blot of Cyclin D1, Example 6B. In kind it is cell-based. Conditions: 250 nM, 24 h, compared to control (DMSO). How it is done:
Cells were plated at a density of 3×10^5 cells/well for 24 hrs. Representative compounds or DMSO alone was then added to the wells for 24 h at 250 nM (note: Compound F was administered at a concentration of 2 μM). Cells were trypsinised, pelleted, washed ×3 in PBS, and lysed using a 2% SDS lysis solution (Sigma—05030).
Western blot analysis was then carried out to look at Cyclin D1 (Abeam—ab134175), PRK8 (Sigma—P6248), Rb (Abeam—[…]) and GAPDH (Sigma—G9545) levels.

Data set [2] concerns cyclin D1. The data set is described as follows: Western blot of Cyclin D1 in Mino cells, Example 6C. In kind it is cell-based. Particulars: compared to control (DMSO). The method, then: Mino cells have a chromosomal translocation of the Cyclin D gene that increases expression of cyclin D1. Western blot analysis was then carried out to look at Cyclin D1 (Abeam—ab134175) and GAPDH (Sigma—G9545) levels after treatment with Compounds F, S3, 42, and 146.

The next data set deals with HCT-116 xenograft. In words: Subcutaneous HCT-116 xenograft model, tumor volume. In kind it is in vivo, nude mice. Particulars: Groups 2-6 of Table 8 (Compound 42 1 and 5, Q3 5 and 15, F 25 mg/kg); IP daily for 20 days; 28 days; vs control. How it is done: The efficacy of Compound 42, Compound F, and Compound Q3 were evaluated in the treatment of subcutaneous HCT-116 xenograft model in nude mice.
Cell Culture: HCT-116 tumor cell lines were maintained in vitro as a monolayer culture in DMEM medium supplemented with 10% fetal bovine serum at 37° C. in an atmosphere of 5% CO2 in air. The tumor cells were routinely subcultured twice weekly by trypsin-EDTA treatment (0.05% Trypsin-EDTA) and 1:4 split: The cells in an exponential growth phase were harvested and counted for tumor inoculation.
Tumor Inoculation: Each, mouse was inoculated subcutaneously at the flank region with HCT-1.16 cells (1.0×106) in 0.1 ml of 1×PBS mixed with Matrigel (1:1) for tumor development. The day Xenotransplantation was performed is denoted as day 0.
Thirty (30) animals with approx 100-150 mm^3 tumors were selected for HCT-116 follow up experiment and randomly placed Into Groups 1, 2, […], 4, 5, and 6 as shown in Table 8.
Group Assignment: Before grouping and treatment, all animals were weighed and fee tumor volumes were confirmed (100-150 mm^3) using electronic caliper. Since the tumor volume can affect fee effectiveness of any given treatment mice into groups using randomized block design as following: First the experimental animals were divided into homogeneous blocks based on their tumor volume. Secondly, within each block, randomization of experimental animals to different groups By using randomized block design to assign experimental animals, we ensure that each animal has the same probability of being assigned to any given treatment groups and therefore systematic error is minimized.
(§1) Treatments were initiated when turner volume reached 100-150 mm^3. Treatments started on Day 5. Test compounds were administered intraperitoneally (II′) in 10 mg/mL solution comprising 10% N,N-dimethyl acetamide, 15% macrogol 15 hydroxy stearate, polyethylene glycol-15-hydroxystearate, and 75% aqueous hydroxypropyl-beta-cyclodextrin.
(§2) Observation and data collection: After tumor cells inoculation, the animals were checked daily for morbidity and mortality. At the time of routine monitoring, the animals were checked for any adverse effects of tumor growth and treatments on normal behavior such as mobility, visual estimation of food and water consumption, body weight gain/loss, eye/hair matting and any other abnormal effects, Death and observed clinical signs were recorded, per […] IACUC. Tumor volumes were measured every 3-4 days in two dimensions using an electronic caliper, sad the volume data are expressed in, mm3 using the formula: V=0.5 a×b^2 where a and b are fee long and short diameters of the tumor, respectively. Dosing and tumor volume measurement procedures were conducted in a Laminar Flow Cabinet according to Altogen Labs IACUC regulations.
Statistics: Summary statistics, the mean and the standard error of the mean (SEM), are provided for the tumor volume of each group at each time point. Statistical analysis of difference in tumor volume among the groups and the analysis of drug interaction were conducted on the data obtained after the final dose.

The nature of data set [3]: HCT-116 xenograft model, body weight and adverse events. In kind it is in vivo. Particulars: Groups 2-6 of Table 8; IP daily for 20 days. The method, then: as §1, §2
Body weight loss daring fee study: Sacrifice fee mouse when one measurement of body weight loss (BWL)>20% (only for control animals). Animal research associated wife this study was conducted under Altogen Labs IACUC regulatory space. Altogen Labs IACUC guidelines were followed in case of BWL and any other conditions.

The test system of another data set is ubiquitinated proteins. In words: Mechanistic study: Ub (FK-2) western blot. Format: cell-based. Conditions: ES-2; epoxomicin 60 nM; 18 hours. How it is done: In order to establish that the decrease in Cyclin D seen after Compound 42 treatment is due to proteasomal degradation, ES-2, ovarian cancer cell line was treated with Compound 42 (250 nM) in the presence or absence of epoxomicin, a specific inhibitor of the proteasome (60 nM) for 18 hours. Following the treatment, western blotting for Cyclin D (FIG. 10A), Ub (FK-2) (FIG. 10B), and GAPDH control (bottom blot, below FIGS. 10A and 10B) was performed. Epoxomicin is a specific inhibitor of the proteasome.

The next data set concerns HCT-116. In words: Senescence quantification (SA-βGal), Example 6A. Format: cell-based. Particulars: Compound 42 250 nM, Palbociclib 1 μM. How it is done:
Day 1: 96 well plate was seeded with 4000 cells/well and incubated for 24 hours at 37° C. […]
Day 6: Senescence cells histochemical Staining Kit (Sigma) was used. The growth medium form the cells were aspirated then washed twice with fresh […]. […] 100 μL filtered Fixation Buffer was added per well and the plate was incubated for 6-7 minutes at room temperature. Then, the cells were rinsed 3 times with PBS. 50 μL of the Staining Mixture was added per well and incubated at 37° C. overnight without CO2 (staining is pH dependent). After staining, the Staining Mixture was removed, PBS and Hoechst dye (1 μg/mL) were added. Ten images were taken with Epifluorescence Microscope using the blue filter and 10 images were taken in the brightfield. The images were used to count the total cell number—the positive blue cells were counted in the bright field. The percentage of cells expressing β-galactosidase was calculated.
Method 1: Mammalian β-Galactosidase Assay Kit (Thermo Scientific) was used. […] The cells were washed once with PBS. 100 μL of the β-Galactosidase Assay Reagent was added to each well and the plate was covered and incubated for 30 minutes at 37° C. without CO2. The absorbance was measured at 405 nm. […]
Method 2: Assay of a portion of the lysate. […] 25 μL of lysate was removed and use it for Protein Quantification (BCA). […]
Senescence was quantified according to Example 4. […]

Turning to `Cc1ccccc1C(=O)Nc1nc(-c2ncccc2C)nn1-c1cccc(F)c1` [Compound 146], the “Cyclin D1 expression” value in the data set with cyclin D1 [1] (HCT-116) and in the data set on cyclin D1 [1] (TOV-112) was “reduction of Cyclin D1 expression” each time. Further, the “cyclin D expression” value with cyclin D1 [2] is on record as “appreciably reduce Cyclin D expression”.

As for `Cc1ccccc1C(=O)Nc1nc(NC(=O)c2ccccc2C)n(-c2ccc(Cl)cc2)n1` [Compound Q3], the “tumor growth (tumor volume)” value with HCT-116 xenograft is “reduce the tumor growth”. In addition, in data set [3], the “weight loss or adverse events” value is reported as “No weight loss or any adverse events”.

For the molecule `Cc1ccccc1C(=O)Nc1nc(-c2ncccc2C)nn1-c1ccccc1` [Compound S3], the “Cyclin D1 expression” value in the data set on cyclin D1 [1] (HCT-116) and in the data set with cyclin D1 [1] (TOV-112) was “reduction of Cyclin D1 expression” in each case. Moreover, the “cyclin D expression” value with cyclin D1 [2] is recorded as “appreciably reduce Cyclin D expression”.

For the molecule `CC[C@H](C)[C@H](NC(=O)[C@H]([C@@H](C)CC)N(C)C(C)=O)C(=O)N[C@H](C(=O)N[C@@H](CC(C)C)C(=O)[C@@]1(C)CO1)[C@@H](C)O` [epoxomicin], the “ubiquitinated proteins (FK-2 antibody)” value in the data set with ubiquitinated proteins was “overall increase of ubiquitinated proteins”.

In the case of `CC(=O)c1c(C)c2cnc(Nc3ccc(N4CCNCC4)cn3)nc2n(C2CCCC2)c1=O` [palbociclib, reference compound], the “apoptosis or other cell death” value with HCT-116 is “No apoptosis or other cell death was observed”.
